# Tests used:
# [1] = test system: HCT116 WT cells; assay: HCT116 WT cell proliferation / viability (CellTiter-Glo, 6 days); type: cell-based; details: Homo sapiens, HCT-116, 144 h, HCT116 WT cells, 6 days, CellTiter-Glo; read-out: HCT-116 WT IC50
# Procedure, shortened: (§1)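 CellTiter-Glo luminescence, 6-day exposure, RPMI 1640 + 10% FBS. Dosing: 1:3 series (8-9 pts, top 1 or 10 μM) or 1:2 series (22 pts, top 10 or 50 μM), DMSO control. IC50 = 50% of control via curve fit.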
# [2] = test system: HCT116 MTAP null cells; assay: HCT116 MTAP null cell proliferation / viability (CellTiter-Glo, 6 days); type: cell-based; details: HCT116-MTAP null, 144 h, HCT116 MTAP null cells, 6 days, CellTiter-Glo; read-out: HCT-116 MTAP null IC50
# Procedure, shortened: as §1
IC50 [1] [nM],IC50 [2] [nM],Compound
12700,66,"CC(C)N(Cc1ccc(C(F)(F)F)cn1)C(=O)c1cc2c3c(c(N)nc2cn1)COC3 [Example 675, 4-amino-N-(2-propanyl)-N-((5-(trifluoromethyl)-2-pyridinyl)methyl)-1,3-dihydrofuro[3,4-c][1,7]naphthyridine-8-carboxamide]"
316,12,"C[C@H](c1ncccn1)N(Cc1ccc(Cl)nn1)C(=O)c1ccc2nc(N)c3c(c2c1)COC3 [Example 676, 4-amino-N-((6-chloro-3-pyridazinyl)methyl)-N-((1R)-1-(2-pyrimidinyl)ethyl)-1,3-dihydrofuro[3,4-c]quinoline-8-carboxamide]"
> 10000,243,"Cc1nc(CN(C)C(=O)c2ccc3nc(N)c4c(c3c2)COC4)ccc1Br [Example 677, 4-amino-N-((5-bromo-6-methyl-2-pyridinyl)methyl)-N-methyl-1,3-dihydrofuro[3,4-c]quinoline-8-carboxamide]"
1180,40,"CC(C)N(Cc1ccc(OC(F)(F)F)cn1)C(=O)c1ccc2nc(N)c3c(c2c1)COC3 [Example 678, 4-amino-N-(2-propanyl)-N-((5-(trifluoromethoxy)-2-pyridinyl)methyl)-1,3-dihydrofuro[3,4-c]quinoline-8-carboxamide]"
108,5,"C[C@H](c1ncccn1)N(Cc1ccc(C#N)c(Cl)n1)C(=O)c1ccc2nc(N)c3c(c2c1)COC3 [Example 679, 4-amino-N-((6-chloro-5-cyano-2-pyridinyl)methyl)-N-((1R)-1-(2-pyrimidinyl)ethyl)-1,3-dihydrofuro[3,4-c]quinoline-8-carboxamide]"
2840,91,"COC[C@@H](C)N(Cc1ccc(Br)nn1)C(=O)c1cc2c3c(c(N)nc2cn1)COC3 [Example 680, 4-amino-N-((6-bromo-3-pyridazinyl)methyl)-N-((2R)-1-methoxy-2-propanyl)-1,3-dihydrofuro[3,4-c][1,7]naphthyridine-8-carboxamide]"
6490,367,"COC[C@@H](C)N(Cc1ccc(Br)nn1)C(=O)c1cnc2nc(N)c3c(c2c1)COC3 [Example 681, 4-amino-N-((6-bromo-3-pyridazinyl)methyl)-N-((2R)-1-methoxy-2-propanyl)-1,3-dihydrofuro[3,4-c][1,8]naphthyridine-8-carboxamide]"
3400,87,"N#Cc1ccc(CN(CC2CC2)C(=O)c2cc3c4c(c(N)nc3cn2)COC4)nc1 [Example 682, 4-amino-N-((5-cyano-2-pyridinyl)methyl)-N-(cyclopropylmethyl)-1,3-dihydrofuro[3,4-c][1,7]naphthyridine-8-carboxamide]"
> 10000,235,"COc1ccc(CN(C(=O)c2cc3c4c(c(N)nc3cn2)COC4)C(C)C)nc1Cl [Example 683, 4-amino-N-((6-chloro-5-methoxy-2-pyridinyl)methyl)-N-(2-propanyl)-1,3-dihydrofuro[3,4-c][1,7]naphthyridine-8-carboxamide]"
> 10000,342,"CC(C)N(Cc1ccc(Br)nn1)C(=O)c1cc2c3c(c(N)nc2cn1)COC3 [Example 684, 4-amino-N-((6-bromo-3-pyridazinyl)methyl)-N-(2-propanyl)-1,3-dihydrofuro[3,4-c][1,7]naphthyridine-8-carboxamide]"
> 10000,201,"COc1nc(CN(C(=O)c2cc3c4c(c(N)nc3cn2)COC4)C(C)C)ccc1Cl [Example 685, 4-amino-N-((5-chloro-6-methoxy-2-pyridinyl)methyl)-N-(2-propanyl)-1,3-dihydrofuro[3,4-c][1,7]naphthyridine-8-carboxamide]"
8800,445,"C[C@H](c1ncccn1)N(Cc1cc2c(cn1)OCCC2)C(=O)c1cc2c3c(c(N)nc2cn1)COC3 [Example 686, 4-amino-N-(3,4-dihydro-2H-pyrano[2,3-c]pyridin-6-ylmethyl)-N-((1R)-1-(2-pyrimidinyl)ethyl)-1,3-dihydrofuro[3,4-c][1,7]naphthyridine-8-carboxamide]"
3440,81,"Nc1nc2cnc(C(=O)N(Cc3ccc(C(F)(F)F)nn3)CC3CC3)cc2c2c1COC2 [Example 688, 4-amino-N-(cyclopropylmethyl)-N-((6-(trifluoromethyl)-3-pyridazinyl)methyl)-1,3-dihydrofuro[3,4-c][1,7]naphthyridine-8-carboxamide]"
2580,96,"Nc1nc2cnc(C(=O)N(Cc3ccc(C(F)(F)F)cn3)C34CC(C3)C4)cc2c2c1COC2 [Example 689, 4-amino-N-(bicyclo[1.1.1]pentan-1-yl)-N-((5-(trifluoromethyl)-2-pyridinyl)methyl)-1,3-dihydrofuro[3,4-c][1,7]naphthyridine-8-carboxamide]"
4170,71,"Nc1nc2cnc(C(=O)N(Cc3ccc(C(F)(F)F)cn3)c3cnn(C4CC4)c3)cc2c2c1COC2 [Example 690, 4-amino-N-(1-cyclopropyl-1H-pyrazol-4-yl)-N-((5-(trifluoromethyl)-2-pyridinyl)methyl)-1,3-dihydrofuro[3,4-c][1,7]naphthyridine-8-carboxamide]"
3880,127,"Cn1cc(N(Cc2ccc(C(F)F)cn2)C(=O)c2cc3c4c(c(N)nc3cn2)COC4)cn1 [Example 691, 4-amino-N-((5-(difluoromethyl)-2-pyridinyl)methyl)-N-(1-methyl-1H-pyrazol-4-yl)-1,3-dihydrofuro[3,4-c][1,7]naphthyridine-8-carboxamide]"
> 10000,449,"CN(Cc1ccc(C(F)(F)F)cc1)C(=O)c1cc2c3c(c(N)nc2cn1)COC3 [Example 692, 4-amino-N-methyl-N-(4-(trifluoromethyl)benzyl)-1,3-dihydrofuro[3,4-c][1,7]naphthyridine-8-carboxamide]"
> 10000,2020,"CN(Cc1ccc(C(F)(F)F)nc1)C(=O)c1cc2c3c(c(N)nc2cn1)COC3 [Example 693, 4-amino-N-methyl-N-((6-(trifluoromethyl)-3-pyridinyl)methyl)-1,3-dihydrofuro[3,4-c][1,7]naphthyridine-8-carboxamide]"
> 10000,415,"CN(Cc1ccc(Cl)cn1)C(=O)c1cc2c3c(c(N)nc2cn1)COC3 [Example 694, 4-amino-N-((5-chloro-2-pyridinyl)methyl)-N-methyl-1,3-dihydrofuro[3,4-c][1,7]naphthyridine-8-carboxamide]"
4990,210,"CCN(Cc1ccc(C(F)(F)F)nn1)C(=O)c1ccc2nc(N)c3c(c2c1)COC3 [Example 695, 4-amino-N-ethyl-N-((6-(trifluoromethyl)-3-pyridazinyl)methyl)-1,3-dihydrofuro[3,4-c]quinoline-8-carboxamide]"
> 10000,261,"CCN(Cc1ccc(C(F)(F)F)nn1)C(=O)c1cc2c3c(c(N)nc2cn1)COC3 [Example 696, 4-amino-N-ethyl-N-((6-(trifluoromethyl)-3-pyridazinyl)methyl)-1,3-dihydrofuro[3,4-c][1,7]naphthyridine-8-carboxamide]"
4500,206,"CCN(Cc1ccc(Cl)cn1)C(=O)c1cc2c3c(c(N)nc2cn1)COC3 [Example 698, 4-amino-N-((5-chloro-2-pyridinyl)methyl)-N-ethyl-1,3-dihydrofuro[3,4-c][1,7]naphthyridine-8-carboxamide]"
